Source: article PMC9727977, “Pharmacokinetics and pharmacodynamics of bioactive compounds in Penyanqing preparation in THP-1 inflammatory cells induced by Lipopolysaccharide” (BMC Complementary Medicine and Therapies, 2022)
Read-outs that look alike come from different tables or passages of the source.

Columns and labels:
[1] = Stability of the analytes in rat plasma QC samples under different storage conditions; type: in vitro ADME
Procedure: QC samples were […], 50, 125, 400 ng/mL for FE, 20, 100, 400 ng/mL for PRO, 100, 200, 500 ng/mL for CH, 100, 200, 500 ng/mL for PE, 200, 400, 800 ng/mL for SAB respectively. All the stock solutions, working solutions and QC samples were stored at 4 ℃ until use. […] The stability of all QC samples was determined by the freshly calibration curve.

[2] = Pharmacokinetics of six compounds in rat plasma after oral administration of PYQ (HPLC-MS/MS); type: in vivo, Sprague–Dawley rats; conditions: for CL/F: n = 6, read-out: CLz/F (converted); for Vd/F: n = 6, read-out: Vz/F; for AUC(0-inf) / AUC(0-t) / AUC(0-∞): non-compartmental; for MRT: read-out: mean residence time (MRT)
Procedure: Animal experiments referred to our previous manuscript. Female Sprague–Dawley rats (n = 10), weighing 200 ± 20 g, were purchased from the Experimental Animal Center of Southern Medical University (Guangzhou, China). These rats were kept adaptively for one week before the experiment, with a temperature of 23 ± 2 ℃, humidity of 40 ± 5%, 12 h light/dark cycle, and random-fed with water and food available. The rats were fasted overnight before administration.
In our previous study, three different doses (5, 10, and 20 mL/kg/day) of PYQ were used to explore the pharmacodynamic effects of it. According to the clinical dose, the PYQ was orally administered to rats at a dose of 8 mL/kg in this experiment. The plasma of 500 µL was obtained via the retinal venous plexus at 0.083, 0.25, 0.5, 0.75, 1, 2, 4, 8, 12 and 24 h after gavage administration. Then all samples were centrifuged at 4 ℃ for 5 min at 8,000 rpm, and were stored at -80 ℃ in refrigerator until further analysis.
For the pharmacokinetic study of PRO, PE, AST, FE, and CH, 100 µL plasma sample was mixed with 10 µL internal standard (IS, 2 µg/mL naringin), and 700 µL methanol was added for protein sedimentation. The mixture was vortexed for 6 min and centrifuged at 13, 000 rpm for 15 min at 4 ℃. Next, the supernatant was dried in a vacuum drying oven and vortexed with 100 µL of 50% methanol for 6 min, and then the mixture was centrifuged at 13, 000 rpm for 30 min at 4 ℃, and the supernatant was filtered by 0.22 µM filter membrane for HPLC–MS/MS analysis.
For the pharmacokinetic study of SAB, 100 µL plasma was mixed with 10 µL IS (2 µg/mL naringin) and then acidified by mixing with 25 µL of 20% hydrochloric acid. After addition of 1 mL of ethyl acetate, the mixture was vortexed for 6 min and centrifuged at 13,000 rpm for 15 min. The organic layer was transferred to an Eppendorf tube and dried in a vacuum drying oven. The residue was dissolved in 100 µL methanol. After centrifugation at 13,000 rpm for 30 min, the supernatant was filtered by 0.22 µM filter membrane for HPLC–MS/MS analysis.
In this study, the negative ESI multiple reaction monitoring (MRM) mode of AB Sciex API-4000 LC–MS/MS Systems was used to measure SAB, PRO, PE, AST, FE, and CH in rat plasma, respectively. The following setups of the analyzers were used: the temperatures were all 500 ℃; GS1, 55 psi; GS2, 55 psi; curtain gas, 10 psi.
For the chromatographic analysis of PRO, PE, AST, FE, and CH, the chromatographic column used was Agilent Poroshell 120 EC-C18 (100 mm × 3.0 mm, 2.7 µm), and the column temperature was maintained at 25 ℃. The mobile phase was consisted of A (methanol) and B (0.2% aqueous formic acid), and the flow rate was 0.4 mL/min. The gradient elution was carried out as follows: 10% A at 0 ~ 1 min, 10% A-95% A at 1 ~ 2 min, 95% A at 2 ~ 5 min, 95% A-10% A at 5 ~ 5.1 min, 10% A at 5.1 ~ 6 min. 5 µL sample was injected into the system for analysis.
For the chromatographic analysis of SAB, the chromatographic column used was ZORBAX SB-C18 (100 mm × 2.1 mm, 3.5 µm), and the column temperature was maintained at 25 ℃. The mobile phase was consisted of A (methanol) and B (0.2% aqueous formic acid), and the flow rate was 0.4 mL/min. The gradient elution was carried out as follows: 30% A at 0 ~ 0.5 min, 30% A-90% A at 0.5 ~ 1 min, 90% A at 1 ~ 4.5 min, 90% A-30% A at 4.5 ~ 4.6 min, 30% A at 4.6 ~ 6 min. 5 µL sample was injected into the system for analysis.
The pharmacokinetic parameters were calculated by non-compartmental model of the DAS 2.0 software package. The data were presented as mean ± standard deviation (SD). Statistical calculations were performed using SPSS statistical software, and a value of p < 0.05 was denoted statistically significant difference.

[3] = high QC level, nominal ng/mL: AST 500, FE 400, PRO 400, CH 500, PE 500, SAB 800, n = 6
[4] = low QC level, nominal ng/mL: AST 100, FE 50, PRO 20, CH 100, PE 100, SAB 200, n = 6
[5] = middle QC level, nominal ng/mL: AST 200, FE 125, PRO 100, CH 200, PE 200, SAB 400, n = 6
[6] = female, Sprague-Dawley, po, PYQ orally 8 mL/kg, mean ± SD, n = 6
[7] = female, Sprague-Dawley, po, PYQ orally 8 mL/kg, mean ± SD
[8] = female, Sprague-Dawley, po, PYQ orally 8 mL/kg, mean ± SD, n = 6, read-out: Cmax
[9] = female, Sprague-Dawley, po, PYQ orally 8 mL/kg, mean ± SD, n = 6, read-out: tmax
[10] = female, Sprague-Dawley, po, PYQ orally 8 mL/kg, mean ± SD, n = 6, read-out: AUC(0-t)
[11] = female, Sprague-Dawley, po, after PYQ administration
[12] = PYQ orally 8 mL/kg, mean ± SD, n = 6

| Compound | In 56 ℃ for 1 h measured value [1, 3] | Room temperature 24 h measured value [1, 3] | Three freeze-thaw cycles measured value [1, 3] | In 56 ℃ for 1 h measured value [1, 4] | Room temperature 24 h measured value [1, 4] | Three freeze-thaw cycles measured value [1, 4] | In 56 ℃ for 1 h measured value [1, 5] | Room temperature 24 h measured value [1, 5] | Three freeze-thaw cycles measured value [1, 5] | half-life [2, 6] [h] | CL/F [2, 7] [mL/min/kg] | Cmax [2, 8] [ng/mL] | Vd/F [2, 7] [L/kg] | Tmax [2, 9] [h] | AUC(0-inf) [2, 6] [ng·h/mL] | AUC(0-t) [2, 10] [ng·h/mL] | MRT [2, 11] [h] | Cmax [2, 12] [ng/mL] | AUC(0-∞) [2, 12] [ng·h/mL] | Tmax [2, 12] [h] | other results |
| --- | --- | --- | --- | --- | --- | --- | --- | --- | --- | --- | --- | --- | --- | --- | --- | --- | --- | --- | --- | --- | --- |
| C[C@@H]1O[C@@H](O[C@H]2C(=O)c3c(O)cc(O)cc3O[C@@H]2c2ccc(O)c(O)c2)[C@H](O)[C@H](O)[C@H]1O [AST, astilbin] | 495.21 ± 8.43 | 498.07 ± 3.95 | 497.15 ± 6.61 | 98.46 ± 2.77 | 99.68 ± 2.31 | 97.89 ± 4.06 | 194.85 ± 6.53 | 199.01 ± 3.99 | 193.37 ± 7.61 | 3.42 ± 0.34 | 159 | 2270 ± 350 | 45.4 ± 6.31 | 0.25 | 2090 ± 200 | 2080 ± 200 | ≤ 3 |  |  |  |  |
| O=C(/C=C/c1ccc(O)c(O)c1)O[C@@H]1C[C@](O)(C(=O)O)C[C@@H](O)[C@H]1O [CH, chlorogenic acid] | 489.60 ± 8.91 | 499.00 ± 6.02 | 485.90 ± 9.73 | 97.22 ± 3.31 | 99.91 ± 2.94 | 98.55 ± 2.93 | 195.56 ± 7.88 | 200.03 ± 9.56 | 191.77 ± 8.91 | 1.86 ± 0.21 | 356 |  | 57.2 ± 7.48 |  |  | 920 ± 60 | ≤ 3 | 1370 ± 60 | 940 ± 90 |  |  |
| COc1cc(/C=C/C(=O)O)ccc1O [FE, ferulic acid] | 399.13 ± 3.26 | 403.59 ± 7.84 | 400.59 ± 6.95 | 48.33 ± 2.76 | 49.14 ± 2.35 | 49.41 ± 1.85 | 123.42 ± 1.76 | 122.72 ± 2.65 | 124.36 ± 2.46 | 0.9 ± 0.02 | 230 | 1200 ± 150 | 17.9 ± 3.28 |  | 1480 ± 240 | 1430 ± 230 | ≤ 3 |  |  | 0.25 ± 0 |  |
| C[C@@]12C[C@@]3(O)O[C@@H](O1)[C@]1(COC(=O)c4ccccc4)[C@H]3C[C@@]12O[C@@H]1O[C@H](CO)[C@@H](O)[C@H](O)[C@H]1O [PE, paeoniflorin] | 495.87 ± 6.50 | 499.23 ± 2.58 | 492.85 ± 7.60 | 95.32 ± 1.06 | 99.44 ± 2.43 | 99.68 ± 2.83 | 196.25 ± 4.08 | 199.64 ± 2.59 | 197.55 ± 3.60 |  | 153 | 2040 ± 590 | 31.3 ± 4.08 | 0.25 | 2220 ± 310 | 2210 ± 310 | ≤ 3 |  |  |  | t1/2 [2, 12]: 2.37 ± 0.20 h |
| O=Cc1ccc(O)c(O)c1 [PRO, protocatechualdehyde] | 394.26 ± 8.01 | 398.27 ± 4.21 | 395.66 ± 7.14 | 19.88 ± 0.43 | 20.81 ± 0.85 | 20.62 ± 1.06 | 98.21 ± 2.33 | 100.34 ± 1.48 | 97.77 ± 2.49 | 0.93 ± 0.06 | 310 | 1430 ± 220 | 24.9 ± 1.96 |  | 1080 ± 70 | 1050 ± 60 | ≤ 3 |  |  |  | Tmax ([2]; female, Sprague-Dawley, in vivo, po, PYQ orally 8 mL/kg, mean ± SD, n = 6, read-out: tmax): 0.25 h |
| salvianolic acid B [SAB] | 791.11 ± 5.98 | 792.27 ± 3.94 | 790.71 ± 3.52 | 196.22 ± 3.40 | 208.88 ± 8.46 | 194.10 ± 8.56 | 395.20 ± 10.70 | 391.06 ± 6.16 | 388.99 ± 6.75 |  |  |  |  |  |  |  |  | 1590 ± 330 | 3700 ± 460 | 0.29 ± 0.10 | CLz/F [2, 12]: 91.3 ± 11.3 mL/min/kg; Vz/F [2, 12]: 59.83 ± 25.48 L/kg; t1/2 [2, 12]: 7.60 ± 3.34 h; AUC(0-t) [2, 12]: 3400 ± 450 ng·h/mL; mean residence time (MRT) ([2]; after PYQ administration): 5.67 ± 0.66 h |
